The test system of one series is C. parvum. Kind of series: Hollow fiber in vitro Cryptosporidium culture with polarized HCT-8 cells. The series is classed as cell-based, Cryptosporidium parvum. The protocol: C. parvum was cultured using a hollow fiber bioreactor modified for evaluation of potential chemotherapeutic compounds [[21–23]]. Briefly, the system used a 20-kD MWCO polysulfone fiber cartridge (FiberCell Systems, Frederick, MD). HCT-8 cells were grown on the outer surface of the fibers (extracapillary space), and reservoirs were used to provide nutrients to the cells. When the glucose concentration decreased to at least 2 g/L, the extracapillary space was inoculated with 10^6C. parvum (Iowa isolate, Bunch Grass Farms, Deary, ID). […] Compound concentration was reduced over time by the flow of medium through the extracapillary and intracapillary spaces. Samples were removed from the extracapillary space once per day for evaluation of parasite numbers.
C. parvum growth was determined by analysis of the amount of C. parvum 18S-rRNA present and compared to the HCT-8 18S-rRNA as previously described^3. Briefly this was performed by centrifugation at 14,000 x g for 5 min of 0.5 mL samples collected from the extracapillary space (ECS). The pellet was resuspended in 100 µL of iScript buffer and subject to 6-freeze/thaw cycles comprising 1 min in liquid nitrogen followed by 1.5 min at 70 °C. The lysate was collected by centrifugation at 16,162 x g for 5 min, and the RNA purified according to the manufacturer’s instructions (iScriptTM, RT-qPCR sample preparation kit, Bio-Rad Laboratories). C. parvum was enumerated by quantitating the Cp18S-rRNA using the following specific forward and reverse primers - Cp18S-995F: 5’-[…]-3’ and Cp18S-1206R: 5’-[…]-3’ and compared to the human Hs18S-rRNA using the following primer sets - Hs18S-F1373: 5’-[…]-3’ and Hs18S-R1561: 5’-[…]-3’. The amount of 18S-rRNA was determined using 5 ng samples by RT-qPCR as described the manufacturer instructions using a Luna Universal One-Step® RT-qPCR kit (New England Biologics) and a Quant Studio 6 Flex 44 instrument. The cell number is calculated from the CT means using a set of standards prepared from 10^4, 10^5, and 10^6 C. parvum oocysts and compared to 10^4, 10^5, and 10^6 HCT-8 cells.

Series [1] in a line: In vitro solubility at pH 2 and 6.5. The series is classed as physicochemical. As for the experimental part:
Figure 1. Structures, in vitro efficacy, and physicochemical properties of bumped kinase inhibitors (BKIs). […] Solubilities for each BKI were measured at pH 2 and 6.5, to represent the stomach and small intestinal environments, respectively. The human effective permeability (Peff) was predicted as described in Materials and Methods.

The next series deals with Cryptosporidium parvum. Description: C. parvum growth inhibition, nonpolarized HCT-8 coculture assay. Type of series: cell-based. The following applies: Cryptosporidium parvum. An excerpt:
Information regarding C. parvum growth inhibition by BKIs, the hollow fiber model, liquid chromatography–tandem mass spectrometry (LC-MS/MS) methods, and the interferon γ (IFN-γ) knockout (KO) mouse model of C. parvum infection has been described in detail previously [[15], [20–23]]. Information on BKI permeability, LC-MS/MS quantification of elacridar, and quantification of Cryptosporidium by polymerase chain reaction analysis is described in the Supplementary Materials. Unless noted otherwise, statistical significance was determined with an unpaired Student t test, using a significance level of 0.05.
To evaluate the potential impact of P-gp efflux on BKI1318 in vitro efficacy, in vitro assays with polarized and nonpolarized HCT-8 cells were evaluated. The nonpolarized HCT-8 coculture assay to screen anti-Cryptosporidium drug candidates has been previously reported by us in detail. […] Based on the reported elacridar half maximal inhibitor concentration for the inhibition of P-gp, the P-gp activity was predicted to be reduced with both elacridar concentrations. […] Elacridar alone had no effect on C. parvum levels.

Series [2] is described as follows: Caco-2 trans-well apparent permeability assay. Type of series: in vitro ADME. The following applies: human, Caco-2, 5 µM, pH 7.4. The protocol: To initially characterize the permeability of BKIs 1294, 1369, and 1318, the software MedChem Designer (Simulations +, Lancaster, CA) was used to predict the Peff. The in vitro apparent permeability (Papp) was carried out by Absorption Systems LP (Exton, PA) with a Caco-2 trans-well assay. Caco-2 cells (clone C2BBe1) were obtained from American Type Culture Collection (Manassas, VA) were grown to confluence on collagen-coated, microporous membranes in 12-well assay plates. The permeability assay buffer was Hanks’ balanced salt solution (HBSS) containing 10 mM HEPES and 15 mM glucose at a pH of 7.4. The buffer in the receiver chamber also contained 1% bovine serum albumin. The dosing solution concentration was 5 µM BKI in assay buffer, and the cell monolayers were dosed on the apical side (A?B) or basolateral side (B?A) and incubated at 37°C with 5% CO2 in a humidified incubator. After 120 minutes, samples were taken from the donor and receiver chambers in duplicate. The Papp was calculated with equation (1) and the percent recovery with equation (2).
Papp = (dCr/dt) × Vr/(A × CA) (1)
Percent Recovery = 100 × ((Vr × Cr^final) + (Vd × Cd^final))/(Vd × […]) (2)
where dCr/dt is the slope of the cumulative concentration in the receiver compartment versus time in µM s^-1; Vr is the volume of the receiver compartment in cm^3; Vd is the volume of the donor compartment in cm^3; A is the area of the insert (1.13 cm^2 for 12-well); CA is the average of the nominal dosing concentration and the measured 120 minute donor concentration in µM; CN is the nominal concentration of the dosing solution in µM; Cr^final is the cumulative receiver concentration in µM at the end of the incubation period; Cd^final is the concentration of the donor in µM at the end of the incubation period.
To ensure no damage was inflicted to the cell monolayers during the flux period, lucifer yellow flux was also measured post-experimentally for each monolayer. To determine whether BKIs 1294, 1369, and 1318 were substrates of P-gp in vitro, P-gp efflux was characterized using the Caco-2 permeability assay protocol with a few modifications. The dosing solution concentration was 5 μM of BKI in the assay buffer +/- 1 μM valspodar. Cells were first pre-incubated for 30 minutes with HBSS containing +/- 1 μM valspodar. Cell monolayers were dosed on the apical side (A?B) or basolateral side (B?A), and incubated at 37°C with 5% CO2 in a humidified incubator. Samples were taken from the donor and receiver chambers at 120 minutes. Each determination was performed in duplicate.
(In general: Caco-2 monolayers are a common model of the intestinal barrier.)

Setting [3] is: pH 2, represents stomach, read-out: Solubility (pH 2).
[4] abbreviates: HCT-8, in vitro, read-out: C. parvum EC50.

Molecules are shown by their SMILES. ≈ marks a conversion by molar mass, not a printed value. Entries after “also recorded” stand apart in the source; their conditions may differ. Read-outs that look alike come from different tables or passages of the source.

As a reminder, the solubility is how much of the substance goes into solution per volume. A word on the EC50: it is the concentration that produces a half-maximal response. In general, Papp A→B refers to how fast a substance crosses the layer from the apical side. What is called Papp B→A is the apparent permeability from the basolateral to the apical side of a cell layer. For `CCOc1ccc2cc(-c3nn(CC4CCN(C)CC4)c4ncnc(N)c34)ccc2n1` [BKI1369], the “Reduction of C. parvum levels over the course of the study” value in the series on C. parvum (hollow fiber model, polarized HCT-8 cells) is on record as > 3 orders of magnitude. Also, the solubility in series [1] (setting [3]) was over 100 µM. The EC50 in the series on Cryptosporidium parvum (setting [4]) stood at 2300 nM. Besides, in series [2], the Papp A→B at 120 min, 5 µM was 12.4 ×10⁻⁶ cm/s and the Papp B→A at 120 min, 5 µM was 32.7 ×10⁻⁶ cm/s.

As a reminder, the efflux ratio is a quotient of directional permeabilities that is used to spot active efflux. Regarding `CCOc1ccc2cc(-c3nn(CC4CCNCC4)c4ncnc(N)c34)ccc2n1` [BKI1318], the “Effect on C. parvum levels/growth” value with C. parvum (hollow fiber model, compound alone, 80 µM once daily) is listed as “did not decrease; also recorded: no effect”. The “Effect on C. parvum levels with elacridar coadministered” value in the series on C. parvum (hollow fiber model, elacridar coadministered) is listed as “reduced C. parvum levels by an order of magnitude”. Also, in the series with C. parvum (hollow fiber, 80 µM BKI1318 once daily plus 80 µM elacridar), the “Reduction in C. parvum levels with elacridar (80 µM) coadministered” value is recorded as “approximately 1 log”. Also, the solubility in series [1] (setting [3]) was over 100 µM. For the same compound, the solubility in series [1] (pH 6.5, represents small intestine, read-out: Solubility (pH 6.5)) was 56 µM (≈ 22.6 µg/mL). Also, the EC50 with Cryptosporidium parvum (setting [4]) was 3200 nM. In addition, in the series on Cryptosporidium parvum (nonpolarized HCT-8 cells, BKI1318 alone, read-out: EC50 (±standard error) against C. parvum), the EC50 stood at 1600 ± 1500 nM. In addition, in series [2], the efflux ratio at 120 min, 5 µM was 69; the apical-to-basolateral permeability (Papp A→B) at 120 min, 5 µM was 0.29 ×10⁻⁶ cm/s; the Papp B→A at 120 min, 5 µM stood at 20.3 ×10⁻⁶ cm/s.

The values above are taken from article PMC6736360, “P-Glycoprotein–Mediated Efflux Reduces the In Vivo Efficacy of a Therapeutic Targeting the Gastrointestinal Parasite Cryptosporidium” (The Journal of Infectious Diseases, 2019).
